Results published in US20200147149A1, “COMPOSITIONS AND METHODS FOR THE MODULATION OF GUT SENSORY CELLS” (Duke University, priority 2017, published 2020).
Entries after “also recorded” stand apart in the source; their conditions may differ.

Columns and labels:
vagus nerve = experiment: Vagus nerve recording during intraluminal (duodenal) nutrient or CCK perfusion; format: in vivo, mouse; conditions: D-glucose 150 mM perfused intraluminally, wild-type mice
Method: Wild-type control (n=5-9), CckCRE_ChR2-tdTomato (n=6), CckCRE_Halorhodopsin-YFP (n=5), and Vglut1CRE_ChR2-YFP (n=6) mice were used for vagal recordings. Mice were anesthetized with 3 mg/g-mouse urethane 1 hour before surgery then with 0.5-1% isoflurane. A section of neck skin was removed between the jaw and clavicle. The thyroid was reflected bilaterally, and the carotid bundle was exposed using coarse dissection. The carotid nerve was separated from the vagus nerve using a curved blunt probe. Two platinum iridium wires (0.001″ diameter, PTFE coated, 10% Ir 90% Pt; Medwire by Sigmund Cohn Corp) were looped around the vagus nerve for recording. Mineral oil was used to insulate the vagus nerve from surrounding tissue. The small intestine was exposed by removing a section of skin and peritoneum. A 20 gauge gavage needle was surgically inserted through the stomach wall and into the duodenum. The gavage needle was sutured in place beyond the pyloric sphincter. Saline and stimulant tubes were connected to the gavage needle. For optogenetic experiments, a fiber optic cable (FT020, ThorLabs) was threaded through the gavage needle into the lumen of the duodenum. A perfusion exit incision was made 10 cm distal to the pyloric sphincter. During each recording, PBS was constantly perfused through the duodenum using a peristaltic pump (Cole-Parmer) at the lowest setting for a flow rate of ˜400 uL PBS per minute. Stimulation conditions were applied after recording 2 minutes of baseline activity. During whole nutrient stimulation conditions, PBS perfusion was continuous and 200 μL of ENSURE® was perfused through the second tube for 1 minute using a syringe pump. […] During CCK stimulation conditions, PBS perfusion was continuous, and 200 μL of 2.9 μM CCK octapeptide-sulfated (BaChem) was perfused through the second tube for 1 minute using a syringe pump (Fusion 200, Chemyx) for a final concentration of ˜870 nM CCK in PBS (10 μg/kg dose). […] Final stimulant concentrations were determined using the ratio of dilution and confirmed by osmolarity testing (Model 3320 Osmometer, Advanced Instruments Inc.). During 473 nm laser stimulation conditions, PBS perfusion was continuous, and the laser was pulsed for 1 minute at 40 Hz, 4 volts peak voltage, 20% duty cycle (473 nm, 80 mW laser, RGBlase).
Extracellular voltage was recorded from a pair of platinum iridium wires as described above. A differential amplifier and bandpass filter (1000× gain, 300 Hz-5 kHz bandpass filter; A-M Systems LLC) was used and the signal was processed using a data acquisition board and software (20 kHz sampling rate; Signal Express, National Instruments Corp). The raw data was analyzed using a spike sorting algorithm (MATLAB by MathWorks). Spikes were detected using simple threshold detection based on RMS noise. The firing rate was calculated using a Gaussian kernel smoothing algorithm (200-ms time scale).
Stimulation response was quantified as the maximum firing rate after stimulation (stimulant conditions) or during recording (baseline). Each trial serves as its own control by normalizing the maximum firing rate to the average baseline firing rate (defined as the first two minutes of recording, prior to stimulation onset). Mice were excluded from analysis if no sucrose response was present throughout recording. Maximum firing rate was analyzed across genotype, stimulation condition, and their interaction term by ANOVA, followed by HSD post hoc testing (iMP by SAS Institute).

nodose neurons = experiment: Calcium imaging of dissociated Phox2bCRE_GCaMP6s nodose neurons; format: cell-based, mouse
Method: For neurons, Phox2bCRE_GCaMP6s (n=3) nodose neurons were dissociated and plated. Nodose ganglia were dissected and digested in Liberase (Roche, 5401054001). Neurons were washed and filtered through a 70 μm cell strainer, then plated on 12 mm coverslips and placed in an incubator overnight. Cells were imaged 1-2 days later. Coverslips were placed in the recording chamber of a Zeiss Examiner Z1 and imaged with a Hamamatsu camera (Orca-flash4.0; C11440) using the Zeiss ZEN software package. For enteroendocrine cells, CckCRE_tdTomato organoids with transduced with ΔG-rabies-GCaMP6s. Organoids were imaged using multi photon microscopy 3-4 days after transduction. Imaging buffer (in mM: 140 NaCl, 5 KCl, 2 CaCl2, 2 MgCl2, 10 HEPES) was continuously perfused over the coverslips. […] Images were analyzed with Fiji ([…]), and cell traces were plotted with Matlab.

[1] = 20 mM D-glucose, mice=3, cells=246

For O=C[C@H](O)[C@@H](O)[C@H](O)[C@H](O)CO [D-glucose], the vagal firing rate (vagus nerve) was “had the same effect; also recorded: stimulate”, the “percent of Fast Blue positive nodose neurons (innervating small intestine) that did not respond” value (nodose neurons; 20 mM D-glucose, mice=2, cells=73) was 100% and the “percent of nodose neurons that did not respond” value (nodose neurons; [1]) was 97.3±1.9%. The “percent of nodose neurons that responded” value (nodose neurons; [1]) was 2.7±1.9%, the “calcium transients in dissociated nodose ganglia neurons” value (nodose neurons; D-glucose (10 mM) as printed, n=246 cells from 3 mice) was “did not elicit calcium transients” and the “calcium response in Fast Blue labeled nodose neurons” value (nodose neurons; D-glucose (20 mM)) was “no calcium response was observed”.
